{"source": "patent US5534496A", "about": "“Methods and compositions to enhance epithelial drug transport” (University of Southern California, priority 1994, dated 1996)", "key": {"[1]": {"test_system": "bacterial collagenase", "assay": "Hydrolysis by bacterial collagenase", "conditions": "0.04 mg/ml bacterial collagenase"}, "[2]": {"assay": "Degradation in intestinal homogenates", "assay_type": "in vitro ADME", "conditions": "0.5 mM; various intestinal homogenates", "text": "Key: .quadrature., Pz-Pro-Leu; , Pro-Leu."}, "[3]": {"test_system": "Caco2 monolayers", "assay": "Penetration of peptides across Caco2 monolayers", "conditions": "5 mM"}, "[4]": {"test_system": "isolated segments of duodenum, jejunum, ileum, ascending colon, descending colon, and rectum", "assay": "Penetration across isolated intestinal segments in modified Ussing chamber", "assay_type": "in vitro ADME, albino rabbit", "conditions": "for penetration relative to atenolol, timolol and propranolol: all intestinal segments, all at 3 mM; for penetration: descending colon", "protocol": "The penetration of Pz-peptide across the isolated segments of duodenum, jejunum, ileum, ascending colon, descending colon, and rectum of the albino rabbit was evaluated in the modified Ussing chamber. Solution of Pz-peptide at concentrations of 1, 3, and 5 mM were prepared in 5% hydroxypropyl β-cyclodextrin, which was found not to affect either collagenase activity or integrity of the intestinal segments. Periodically up until 240 min, a 50 μl aliquot was collected from the serosal side and injected directly into the HPLC. The apparent permeability coefficient Papp, was calculated using methods well known to one skilled in the art. Papp is defined as the flux of any solute transported across a given membrane per unit area normalized to the concentration applied (see pages 72-73 from the text by W. D. Stein entitled, \"Transport and Diffusion A Cross Cell Membranes\")."}, "[5]": {"test_system": "collagenase-like activity", "assay": "Collagenase activity (Pz-peptide hydrolysis) in homogenates and subcellular fractions of gastrointestinal mucosa", "assay_type": "in vitro ADME", "conditions": "albino rabbit intestinal segments", "protocol": "Collagenase activity in homogenates and subcellular fractions of the gastrointestinal mucosa of the albino rabbit was determined by incubating 30 μl a homogenate or subcellular fraction with 20 μl of a Pz-peptide solution in 11% ethanol for up to 60 min. The subcellular fractions were the cytosolic and membrane fractions, and the concentrations of Pz-peptide ranged from 0.1 to 2 mM. The reaction was stopped by adding 225 μl of acetonitrile to the incubation mixture. Following centrifugation to remove precipitated proteins, an aliquot of the supernatant was injected into the HPLC for assay of the intact peptide and its hydrolytic product, Pz-L-Pro-L-Leu. Collagenase activity was determined from the initial slope of a plot of product concentration vs. time.\nUsing the procedure described in section A above, collagenase actively for the Pz-peptide was found in both tissue homogenate and subcellular fractions of the intestinal segments of the albino rabbit. Referring to FIG. 1, collagenase-like activity was highest in the descending colon and lowest in the jejunum, there being a 7-fold difference in activity at both high and low substrate concentration. […] About 60% of collagenase-like activity was in the cytosol."}, "[6]": {"test_system": "human colon carcinoma cell monolayer (Caco2)", "assay": "Transepithelial electrical resistance (TEER) of Caco2 monolayers", "conditions": "3 mM; prolonged exposure", "description": "A 500 ohms·cm^2 transepithelial electrical resistance, TEER, was used for the study.\nThe experiment was initiated by replacing the mucosal solution with sample solution. The viability of the cell monolayers was measured by TEER before and after exposure to the peptide solution. Five paracellular markers with different molecular radii were used to determine the extent of enhancement."}, "[7]": {"conditions": "from Betageri and Rogers (1987); cited from earlier work"}}, "note": "Entries after “also recorded” stand apart in the source; their conditions may differ. Where a SMILES comes first, the peptide text is derived from it. [ ]: non-standard residue; d: D form. The star is where a group is joined. X1 = O=C(OCc1ccc(/N=N/c2ccccc2)cc1)*", "data": [{"smiles": "CC(C)C[C@H](NC(=O)[C@@H]1CCCN1)C(=O)N[C@@H](CCC(=O)O)C(=O)N1CCC[C@H]1C(=O)N[C@H](CCCNC(=N)N)C(=O)O", "note": "[PLEP^d R, Pro-Leu-Glu-Pro-^d Arg] (H-PLEP[dR]-OH)", "values": [{"measurement": "susceptibility to collagenase action", "setting": "[1]", "result": "not susceptible to collagenase action"}]}, {"smiles": "CC(C)C[C@H](NC(=O)[C@@H]1CCCN1)C(=O)O", "note": "[Pro-Leu, reference compound] (H-Pro-Leu-OH)", "values": [{"measurement": "enzymatic degradation", "setting": "[2]", "result": "degraded to various extent"}, {"measurement": "penetration relative to Pz-Pro-Leu", "setting": "[3]", "result": "about 10 times lower"}]}, {"smiles": "CC(C)C[C@H](NC(=O)[C@@H]1CCCN1C(=O)OCc1ccc(/N=N/c2ccccc2)cc1)C(=O)O", "note": "[Pz-Pro-Leu, Pz-L-Pro-L-Leu]", "values": [{"measurement": "enzymatic degradation", "setting": "[2]", "result": "resistant to enzymatic degradation"}, {"measurement": "concentration dependence of penetration", "setting": "[4]; all intestinal segments studied", "result": "independent of concentrations"}, {"measurement": "penetration relative to atenolol, timolol and propranolol", "setting": "[4]", "result": "penetrated equally well or even better"}, {"measurement": "penetration", "setting": "[4]", "result": "penetrated very well"}]}, {"smiles": "CC(C)C[C@H](NC(=O)[C@@H]1CCCN1C(=O)OCc1ccc(/N=N/c2ccccc2)cc1)C(=O)NCC(=O)N1CCC[C@H]1C(=O)N[C@H](CCCNC(=N)N)C(=O)O", "note": "[Pz-peptide, Pz-Pro-Leu-Gly-Pro-D-Arg] (X1-PLGP[dR]-OH)", "values": [{"measurement": "rank order of collagenase-like activity (Pz-peptide hydrolysis) in intestinal segments", "setting": "[5]", "result": "descending colon>ascending colon>rectum>ileum>duodenum>jejunum"}, {"measurement": "concentration dependence of penetration", "setting": "[4]; 1-5 mM, lower G.I. regions", "result": "increased with increasing peptide concentrations"}, {"measurement": "concentration dependence of transport", "setting": "[4]; 1-5 mM, upper G.I. segments", "result": "independent of concentrations"}, {"measurement": "permeability, lower intestine versus upper intestine", "setting": "[4]; albino rabbit intestinal segments", "result": "lower intestine was more permeable"}, {"measurement": "penetration relative to atenolol, timolol and propranolol", "setting": "[4]", "result": "penetrated equally well or even better"}, {"measurement": "penetration", "setting": "[4]", "result": "penetrated very well; also recorded: penetrated the second best"}, {"measurement": "rank order of permeability coefficient", "setting": "[4]; lower intestine", "result": "rectum>descending colon>ascending colon"}, {"measurement": "permeability of duodenum, jejunum and ileum", "setting": "[4]; upper intestine", "result": "equally permeable"}]}, {"smiles": "C=C1[C@@H](C)[C@H]2[C@H](Cc3ccccc3)NC(=O)[C@]23OC(=O)/C=C/[C@H](O)CCC[C@@H](C)C/C=C/[C@H]3[C@@H]1O", "note": "[cytochalasin B]", "values": [{"measurement": "recovery of TEER", "setting": "[6]", "result": "only partial recovery"}]}, {"smiles": "CC(C)NCC(O)COc1cccc2ccccc12", "note": "(stereo not drawn) [propranolol]", "values": [{"measurement": "distribution coefficient (DC)", "setting": "[7]", "result": 1640}]}, {"smiles": "CC(C)(C)NC[C@H](O)COc1nsnc1N1CCOCC1", "note": "[timolol]", "values": [{"measurement": "distribution coefficient (DC)", "setting": "[7]", "result": 82}]}]}
